Test results as given in patent publication US20240376085A1 (Janssen Pharmaceutica NV, priority 2021, published 2024).

Columns and labels:
[1] = test system: IL-17A-induced G-CSF production in human normal keratinocyte (NHK); experiment: NHK assay: IL-17A-induced G-CSF production in normal human keratinocytes; type: cell-based; conditions: Homo sapiens, Keratinocyte, 24 h, IL-17A 5 ng/mL, average if tested more than once
How it was run: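 IC50 derives from G-CSF in supernatants, quantified by HTRF from a standard curve, with CellTiter-Glo viability compared to DMSO control. Before a 24 h, 37°C culture of normal human keratinocytes at 3000–4000 cells/well, compound dilutions were preincubated 1 h at rt with human IL-17A (5 ng/mL final), with 0.2% DMSO and 5% FBS.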

IL-17A : IL-17RA binding = target: T1, IL-17A : IL-17RA binding (Homo sapiens, UniProt Q16552, K93Q); experiment: IL-17A(FLAG-tagged):IL-17RA(His-tagged) binding disruption Eu-HTRF assay, Protocol 1; conditions: FLAG-IL-17A 2.5 nM at 2x final concentration; average if tested more than once
T1 construct: Name: IL-17A-Flag
T1 sequence (Q16552 with tags, fused parts or gaps K93Q): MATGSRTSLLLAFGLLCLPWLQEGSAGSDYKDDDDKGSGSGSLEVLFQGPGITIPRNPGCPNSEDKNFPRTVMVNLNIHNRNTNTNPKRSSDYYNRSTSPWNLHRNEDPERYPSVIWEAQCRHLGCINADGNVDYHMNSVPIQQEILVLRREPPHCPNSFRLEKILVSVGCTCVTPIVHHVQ
How it was run: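 IC50 came from a one-site competition fit of the acceptor/donor (665/620 nm) HTRF ratio. His-tagged IL-17RA, Eu-anti-FLAG and D2-anti-His were added after a 1 h rt compound preincubation with FLAG-tagged IL-17A dimer in PBS/0.01% Triton X-100, followed by 2 h at rt before reading.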

IC50 (IL-17A : IL-17RA binding) [µM]	Structure (SMILES)	IC50 [1] [µM]
> 0.1	C[C@@H](NC(=O)CCC(F)(F)F)c1ccc2[nH]c([C@@H](NC(=O)C3(C)CC3(F)F)C3CCC(F)(F)CC3)nc2c1 (relative stereo) [Example 109, N—((S)-(4,4-Difluorocyclohexyl)(5-((R*)-1-(4,4,4-trifluorobutanamido)ethyl)-1H-benzo[d]imidazol-2-yl)methyl)-2,2-difluoro-1-methylcyclopropane-1-carboxamide]	> 0.1
> 0.1	C[C@@H](NC(=O)CC(C(F)(F)F)C(F)(F)F)c1ccc2[nH]c([C@@H](NC(=O)c3cc(F)ccc3F)C3CCC(F)(F)CC3)nc2c1 [Example 130, N—((S)-(4,4-Difluorocyclohexyl)(6-((R)-1-(4,4,4-trifluoro-3-(trifluoromethyl)butanamido)ethyl)-1H-benzo[d]imidazol-2-yl)methyl)-2,5-difluorobenzamide]	> 0.1
> 0.1	C[C@@H](NC(=O)CCC(F)(F)F)c1ccc2[nH]c([C@@H](NC(=O)C3(C(F)(F)F)CC3)C3CCC(F)(F)CC3)nc2c1 [Example 97, N—((S)-(4,4-Difluorocyclohexyl)(5-((R)-1-(4,4,4-trifluorobutanamido)ethyl)-1H-benzo[d]imidazol-2-yl)methyl)-1-(trifluoromethyl)cyclopropane-1-carboxamide]	> 0.1
> 0.1	Cc1nonc1C(=O)N[C@H](c1nc2ccc([C@H](NC(=O)CC3CC(F)(F)C3)C3CC3)cc2[nH]1)[C@H]1C[C@H](CC(F)(F)F)C1 (single isomer, unassigned) [Example 245]	> 0.1
> 0.1	C[C@@H](NC(=O)CCC(F)(F)F)c1ccc2[nH]c([C@@H](NC(=O)c3cnnn3CCOC(F)F)C3CCC(F)(F)CC3)nc2c1 [Example 34, N—[(S)-(4,4-Difluorocyclohexyl)-[6-[(1R)-1-(4,4,4-trifluorobutanoylamino)ethyl]-1H-benzimidazol-2-yl]methyl]-3-[2-(difluoromethoxy)ethyl]triazole-4-carboxamide]	0.05 to 0.1
< 0.05	CC(C)(OC[C@H](NC(=O)c1nonc1C1CC1)c1nc2ccc([C@H](NC(=O)CC3CC(F)(F)C3)C3CC3)cc2[nH]1)C(F)(F)F [Example 159, 4-Cyclopropyl-N—((R)-1-(6-((R)-cyclopropyl(2-(3,3-difluorocyclobutyl)acetamido)methyl)-1H-benzo[d]imidazol-2-yl)-2-((1,1,1-trifluoro-2-methylpropan-2-yl)oxy)ethyl)-1,2,5-oxadiazole-3-carboxamide]	< 0.05
> 0.1	C[C@@H](NC(=O)CCC(F)(F)F)c1ccc2nc([C@@H](NC(=O)c3cnnn3CC3CC(F)(F)C3)C3CCC(F)(F)CC3)[nH]c2c1 [Example 66, 1-((3,3-Difluorocyclobutyl)methyl)-N—((S)-(4,4-difluorocyclohexyl)(6-((R)-1-(4,4,4-trifluorobutanamido)ethyl)-1H-benzo[d]imidazol-2-yl)methyl)-1H-1,2,3-triazole-5-carboxamide]	0.05 to 0.1
> 0.1	C[C@@H](NC(=O)CCC(F)(F)F)c1ccc2[nH]c([C@@H](NC(=O)c3cnnn3CC3CC3)C3CCC(F)(F)CC3)nc2c1 [Example 9, 3-(Cyclopropylmethyl)-N—[(S)-(4,4-difluorocyclohexyl)-[6-[(1R)-1-(4,4,4-trifluorobutanoylamino)ethyl]-1H-benzimidazol-2-yl]methyl]triazole-4-carboxamide]	> 0.1
< 0.05	C[C@H](OCC(NC(=O)c1nonc1C1CC1)c1nc2ccc([C@H](NC(=O)CC3CC(F)(F)C3)C3CC3)cc2[nH]1)C(F)(F)F (single isomer, unassigned) [Example 154, 4-Cyclopropyl-N—((R*)-1-(6-((R)-cyclopropyl(2-(3,3-difluorocyclobutyl)acetamido)methyl)-1H-benzo[d]imidazol-2-yl)-2-(((S)-1,1,1-trifluoropropan-2-yl)oxy)ethyl)-1,2,5-oxadiazole-3-carboxamide]	0.05 to 0.1
